Results published in the supplement of paper PMC10307832.

Key:
Assay in all cases: relative viability (nuclei count vs DMSO), 5 days (fraction); higher = more cells survive
[1] = compound: C1COCCN1C2=CC(=O)C3=C(O2)C(=CC=C3)C4=CC=CC5=C4SC6=CC=CC=C56
Outline: (§1)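 Only plates meeting two conditions passed: control CV below 25% and at least one doubling. Lung cancer cell lines, kept overnight at 37 °C in 1536-well plates, were pinned with five library-drug doses (not always all listed) √10 apart on vehicle-anchored plates and grown 5 days without medium change. A one-step fix, permeabilisation and Hoechst stain preceded 4× imaging and MetaXpress nuclear counting. Viability equals treated-well nuclei divided by vehicle-well nuclei, as the median over plates.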

[2] = compound: CCN(CC)CCCCNc1ncc2cc(-c3cc(OC)cc(OC)c3)c(NC(=O)NC(C)(C)C)nc2n1
Outline: as §1

[3] = compound: COCC1(CO)C(=O)C2CCN1CC2 [PRIMA-1MET]
Outline: as §1

[4] = compound: COc1nc(C)cnc1NS(=O)(=O)c1cccnc1-c1ccc(-c2nnco2)cc1 [Zibotentan]
Outline: as §1

[5] = compound: O=c1cc(-c2cccc3c2Sc2ccccc2S3)oc(N2CCOCC2)c1
Outline: as §1

Cell Line	relative viability ([1]; 0.01 µM)	relative viability ([1]; 0.03162 µM)	relative viability ([1]; 0.1 µM)	relative viability ([1]; 0.3162 µM)	relative viability ([1]; 1 µM)	relative viability ([2]; 0.01 µM)	relative viability ([2]; 0.03162 µM)	relative viability ([2]; 0.1 µM)	relative viability ([2]; 0.3162 µM)	relative viability ([2]; 1 µM)	relative viability ([3]; 0.2 µM)	relative viability ([3]; 0.6325 µM)	relative viability ([3]; 2 µM)	relative viability ([3]; 6.325 µM)	relative viability ([3]; 20 µM)	relative viability ([4]; 0.08 µM)	relative viability ([4]; 0.253 µM)	relative viability ([4]; 0.8 µM)	relative viability ([4]; 2.53 µM)	relative viability ([5]; 0.08 µM)	relative viability ([5]; 0.253 µM)	relative viability ([5]; 0.8 µM)	relative viability ([5]; 2.53 µM)	relative viability ([5]; 8 µM)
IA-LM	0.997	0.894	0.96	0.862	0.825	1.02	0.879	0.916	1.25	0.883	0.995	0.813	1.02	1.01	0.958	0.937	0.938	1	0.972	0.987	1.05	0.887	0.805	1.12
LC-2-ad	1.01	1.07	1.01	1.01	1.01	1.02	1.05	1.1	1.15	0.88	1.03	0.84	0.819	1.05	0.935	1.03	0.868	0.993	1.03	0.924	1.1	1.06	0.967	1.02
LCLC-97TM1	0.978	0.973	0.969	0.953	1.04	0.725	0.81	1.11	1.03	0.864	0.845	0.738	1.03	0.963	0.468	0.979	0.86	1.06	1.04	0.971	0.962	0.929	0.794	1.09
LCLC-103H	1.06	1.02	1.01	0.903	0.997	1.01	1.01	1.02	0.952	0.687	1.04	0.875	0.805	1.02	0.993	1.08	0.98	0.923	1.01	0.96	1.01	1	0.953	1.05
LK-2	1.03	1.07	1.12	0.97	1.07	1.06	0.944	0.903	0.709	0.312	1.06	0.925	0.602	0.514	0.197	1.24	0.923	0.906	0.953	1.09	1.16	1.06	0.9	1.45
LOU-NH91	0.905	0.974	0.928	1.1	0.92	0.91	0.975	1.03	1.12	0.949	1.15	0.894	0.81	0.999	0.655	0.969	0.876	1.01	1.08	0.92	1.02	0.868	0.79	0.981
LU99A	0.957	1.03	1.02	0.888	0.997	0.888	0.972	0.997	1.01	0.899	0.939	0.852	0.822	0.935	0.508	1.06	0.912	0.938	0.89	0.901	0.935	1.01	1.02	0.997
LXF-289	1.05	1.01	1.03	1.01	1.07	1.01	1.02	1.06	1.02	0.844	1.08	0.983	1.16	1.04	0.942	1.02	1.01	1.02	1.01	1.01	1.03	1.02	0.99	1.02
NCI-H23	0.981	1.11	–	1.12	1.03	0.923	1	0.957	1.08	0.977	0.904	0.754	0.814	0.909	0.201	1.05	0.91	0.89	1.1	0.776	1.11	1.02	0.846	0.879
NCI-H322M	0.895	1.01	–	0.97	0.77	0.926	0.923	1.05	1.07	0.871	1.13	0.831	–	1.11	0.838	1.03	0.818	0.906	0.983	0.841	0.969	0.848	0.879	0.875
NCI-H358	0.857	0.93	1.04	1.07	1.05	0.899	0.933	1.05	1.15	0.815	1.09	0.775	0.829	1.07	0.451	0.954	0.675	0.924	0.956	0.807	1.04	0.985	0.988	0.888
NCI-H441	1.1	0.977	1.08	0.938	1.05	1.05	1.08	1.25	1.12	0.995	1	0.87	0.812	0.99	0.713	1.11	0.828	1.3	0.985	1.02	1.27	1.23	0.971	1.1
NCI-H460	0.971	0.993	1.01	1	0.989	0.994	1.05	1.14	1.09	0.959	1.01	0.859	0.86	1.02	0.592	1.04	0.838	0.926	0.995	1	1.13	0.918	0.935	1.08
NCI-H520	1.08	1.06	0.98	1.02	0.955	0.962	1	0.965	0.763	0.306	1.09	0.722	0.678	0.817	0.163	1.14	0.924	0.801	1.15	0.95	1.2	1.12	0.906	0.997
NCI-H522	1.09	0.992	0.889	1.21	0.984	1.11	1.05	0.914	0.96	0.907	0.888	0.804	0.921	0.886	0.279	0.839	0.957	0.904	0.867	0.888	1.01	0.798	0.908	0.967
NCI-H596	0.999	0.984	0.916	1.02	0.939	0.973	1.06	0.992	0.915	0.858	0.981	0.875	0.857	1.14	0.224	0.842	1.01	1.07	1.12	0.947	1.08	1.04	0.916	0.979
NCI-H647	0.911	0.918	0.867	1.05	0.986	0.94	1	1.04	1.1	0.903	1.11	0.824	0.783	1.04	0.762	0.964	0.83	0.887	0.993	0.937	1.2	1.02	0.855	1.01
NCI-H650	0.909	1.07	–	1.08	0.884	0.836	0.926	1.19	0.983	0.888	1.24	–	0.913	1.03	0.128	1.02	0.792	0.988	0.912	0.979	0.857	1.01	0.76	1.1
NCI-H661	0.965	1.01	0.98	0.991	0.969	1.06	1	1.03	1.09	0.993	1.03	0.917	0.991	1	0.957	1.01	0.912	0.951	0.987	0.996	1	0.948	0.942	0.951
NCI-H727	0.91	0.858	0.874	0.888	0.958	0.985	0.978	0.94	1.07	0.882	1.01	0.865	0.625	0.615	0.331	0.847	0.872	0.966	1.01	0.908	1.08	0.758	0.899	0.924
NCI-H838	1.04	0.966	0.98	0.99	0.893	0.99	0.971	1.01	0.97	0.643	1.05	0.946	0.841	1.08	0.659	0.962	0.87	0.987	0.998	0.979	1.09	0.862	0.947	0.887
NCI-H1299	1.01	0.987	1.02	0.994	1.01	1.03	1.06	1.09	1.06	1.02	1.08	1.03	1.03	1.02	0.977	1.02	1.02	0.998	1.02	1.02	1.02	1.04	1.02	1.01
NCI-H1355	0.991	1.04	0.74	1.03	0.928	1.08	0.938	1.04	1.11	0.939	0.955	0.908	0.894	0.973	0.927	1	0.984	0.955	1	0.955	1.13	0.837	0.904	0.953
NCI-H1395	0.944	0.987	0.888	1.15	0.822	0.731	0.894	0.979	0.869	0.652	0.925	0.676	0.866	0.964	0.551	1.02	0.819	0.901	1.16	0.816	0.863	1.02	0.81	1.23
NCI-H1437	0.955	0.98	1.02	1.05	0.959	1.08	0.979	1.08	1.11	0.945	1.03	0.859	0.971	1	0.96	1.02	0.882	0.964	0.995	1.01	1.16	1.11	0.918	1.18
NCI-H1563	0.972	1.01	0.944	0.975	0.977	1.03	0.95	1.04	0.928	0.729	1.05	0.968	0.806	1.06	0.457	1.04	0.716	1	1.09	0.973	0.988	0.933	0.989	0.986
NCI-H1623	0.939	0.932	0.888	0.931	0.888	0.951	0.888	0.913	0.993	0.933	1.07	0.943	0.926	0.997	0.598	0.936	0.744	1.05	0.85	1.03	0.981	0.957	0.944	1.07
NCI-H1648	0.861	1.03	1.14	0.932	0.959	1.02	1.16	0.927	0.656	0.544	0.852	0.715	1.07	0.722	0.75	1.04	0.786	0.84	0.932	0.742	1.16	0.792	0.591	0.921
